Assay results taken from patent US9067911B2, “Piperidine derivatives” (Hoffmann-La Roche Inc., priority 2009, dated 2015).
Counter-ions that a name gives are not always drawn.

molecular target: T1, mGlyT-1b (Mus musculus, UniProt P28571); experiment: Glycine uptake inhibition assay (mGlyT-1b); format: cell-based; details: [3H]-glycine uptake, Flp-in-CHO cells stably transfected with mGlyT1b cDNA, 20 min preincubation at 22° C.
T1 construct: host or cells: Flp-in-CHO
T1 sequence (P28571 1-651 isoform P28571-2): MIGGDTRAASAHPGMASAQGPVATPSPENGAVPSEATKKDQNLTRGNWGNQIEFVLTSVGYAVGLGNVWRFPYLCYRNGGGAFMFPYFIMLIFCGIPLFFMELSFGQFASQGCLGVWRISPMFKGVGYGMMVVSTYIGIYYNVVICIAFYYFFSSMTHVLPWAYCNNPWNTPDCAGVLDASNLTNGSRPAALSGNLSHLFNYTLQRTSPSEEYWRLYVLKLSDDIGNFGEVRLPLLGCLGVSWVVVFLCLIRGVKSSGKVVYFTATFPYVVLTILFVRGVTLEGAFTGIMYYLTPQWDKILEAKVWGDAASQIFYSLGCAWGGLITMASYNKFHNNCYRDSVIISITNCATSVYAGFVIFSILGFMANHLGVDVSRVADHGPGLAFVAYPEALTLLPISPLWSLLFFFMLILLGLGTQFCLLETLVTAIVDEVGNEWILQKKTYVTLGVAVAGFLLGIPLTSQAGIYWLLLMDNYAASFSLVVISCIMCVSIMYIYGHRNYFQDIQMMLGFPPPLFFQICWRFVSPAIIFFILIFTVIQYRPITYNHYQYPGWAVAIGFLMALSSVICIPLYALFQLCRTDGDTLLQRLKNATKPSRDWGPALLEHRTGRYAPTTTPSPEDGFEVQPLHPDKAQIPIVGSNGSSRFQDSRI
Description: Nutrient mixture F-12 (Gibco Life-technologies), fetal bovine serum (FBS) 5%, (Gibco life technologies), Penicillin/Streptomycin 1% (Gibco life technologies), Hygromycin 0.6 mg/ml (Gibco life technologies), Glutamine 1 mM Gibco life technologies)
150 mM NaCl, 10 mM Hepes-Tris, pH 7.4, 1 mM CaCl2, 2.5 mM KCl, 2.5 mM MgSO4, 10 mM (+) D-glucose.
Flp-in™-CHO (Invitrogen Cat n° R758-07) cells stably transfected with mGlyT1b cDNA.
Glycine Uptake Inhibition Assay (mGlyT-1b)
On day 1 mammalian cells, (Flp-in™-CHO), transfected with mGlyT-1b cDNA, were plated at the density of 40,000 cells/well in complete F-12 medium, without hygromycin in 96-well culture plates. On day 2, the medium was aspirated and the cells were washed twice with uptake buffer (UB). The cells were then incubated for 20 min at 22° C. with either (i) no potential competitor, (ii) 10 mM non-radioactive glycine, (iii) a concentration of a potential inhibitor. A range of concentrations of the potential inhibitor was used to generate data for calculating the concentration of inhibitor resulting in 50% of the effect (e.g. IC50, the concentration of the competitor inhibiting glycine uptake of 50%). A solution was then immediately added containing [^3H]-glycine 60 nM (11-16 Ci/mmol) and 25 μM non-radioactive glycine. The plates were incubated with gentle shaking and the reaction was stopped by aspiration of the mixture and washing (three times) with ice-cold UB. The cells were lysed with scintillation liquid, shaken 3 hours and the radioactivity in the cells was counted using a scintillation counter.

Row | SMILES | IC50 [nM]
1 | CCc1cc(C(F)(F)F)ccc1C(=O)N[C@@]1(c2ccccc2)C[C@H](C)CN(C)C1 (racemic) [Example 124, N-((3R,5S) or (3S,5R)-1,5-Dimethyl-3-phenyl-piperidin-3-yl)-2-ethyl-4-trifluoromethyl-benzamide] | 12.7
2 | CCc1cc(C(F)(F)F)ccc1C(=O)N[C@@]1(c2ccccc2)C[C@H](OC)CN(C)C1 (racemic) [Example 125, 2-Ethyl-N-((3R,5S) or (3S,5R)-5-methoxy-1-methyl-3-phenyl-piperidin-3-yl)-4-trifluoromethyl-benzamide] | 176
3 | CO[C@@H]1CN(C)C[C@](NC(=O)c2ccc(C(F)(F)F)cc2C2CC2)(c2ccccc2)C1 (racemic) [Example 126, 2-Cyclopropyl-N-((3R,5S) or (3S,5R)-5-methoxy-1-methyl-3-phenyl-piperidin-3-yl)-4-trifluoromethyl-benzamide] | 31.2
4 | COc1cc(C(F)(F)F)cc(OC)c1C(=O)N[C@@]1(c2ccccc2)CCCN(C)C1 (racemic) [Example 128, 2,6-Dimethoxy-N-(R or (S)-1-methyl-3-phenyl-piperidin-3-yl)-4-trifluoromethyl-benzamide] | 126
5 | Cl.[2H]C([2H])([2H])N1CCC[C@@](NC(=O)c2c(OC)cc(C(F)(F)F)cc2SC)(c2ccccc2)C1 (single isomer, unassigned) [Example 63, [2H-methyl]-2-Methoxy-N—(R) or (S)-1-methyl-3-phenyl-piperidin-3-yl)-6-methylsulfanyl-4-trifluoromethyl-benzamide hydrochloride] | 10
6 | COc1cc(C(F)(F)F)cc(SC)c1C(=O)NC1(c2ccccc2F)CCCN(C)C1 (single isomer, unassigned) [Example 111, N-[(R or S)-3-(2-Fluoro-phenyl)-1-methyl-piperidin-3-yl]-2-methoxy-6-methylsulfanyl-4-trifluoromethyl-benzamide] | 57.3
7 | COc1cc(C(F)(F)F)cc(SC)c1C(=O)NC1(c2cc(F)ccc2F)CCCN(C)C1 (single isomer, unassigned) [Example 113, N-[(R or S)-3-(2,5-Difluoro-phenyl)-1-methyl-piperidin-3-yl]-2-methoxy-6-methylsulfanyl-4-trifluoromethyl-benzamide] | 56.4
8 | CCc1cc(C(F)(F)F)ccc1C(=O)NC1(c2ccccc2)CCCN(C)C1 (single isomer, unassigned) [Example 115, 2-Ethyl-N-((R or S)-1-methyl-3-phenyl-piperidin-3-yl)-4-trifluoromethyl-benzamide hydrochloride] | 25.9
9 | COc1cc(C(F)(F)F)cc(SC)c1C(=O)NC1(c2ccccc2)CN(C)CC(C)(C)C1 (single isomer, unassigned) [Example 116, 2-Methoxy-6-methylsulfanyl-4-trifluoromethyl-N-((S or R)-1,5,5-trimethyl-3-phenyl-piperidin-3-yl)-benzamide] | 35.8
10 | COc1cc(C(F)(F)F)cc(SC)c1C(=O)N[C@]1(c2ccccc2)CC[C@H](C)N(C)C1 (single isomer, unassigned) [Example 117, N-((3S,6S) or (3R,6R)-1,6-Dimethyl-3-phenyl-piperidin-3-yl)-2-methoxy-6-methylsulfanyl-4-trifluoromethyl-benzamide] | 32.4
11 | COc1cc(C(F)(F)F)cc(SC)c1C(=O)N[C@@]1(c2ccccc2)CC[C@@H](C)N(C)C1 (single isomer, unassigned) [Example 119, N-((3R,6R) or (3S,6S)-1,6-Dimethyl-3-phenyl-piperidin-3-yl)-2-methoxy-6-methylsulfanyl-4-trifluoromethyl-benzamide] | 13.9
12 | COc1cc(C(F)(F)F)cc(SC)c1C(=O)N[C@@]1(c2ccccc2)CC[C@H](C)N(C)C1 (single isomer, unassigned) [Example 120, N-((3R,6S) or (3S,6R)-1,6-Dimethyl-3-phenyl-piperidin-3-yl)-2-methoxy-6-methylsulfanyl-4-trifluoromethyl-benzamide] | 12.7
13 | COc1cc(C(F)(F)F)cc(SC)c1C(=O)N[C@]1(c2ccccc2)CCCN(C)C1 (stereo in doubt) [Example 37, 2-Methoxy-N-((S)-1-methyl-3-phenyl-piperidin-3-yl)-6-methylsulfanyl-4-trifluoromethyl-benzamide hydrochloride] | 182
14 | COc1cc(C(F)(F)F)cc(SC)c1C(=O)N[C@@]1(c2ccccc2)CCCN(C)C1 (stereo in doubt) [Example 38, 2-Methoxy-N-((R)-1-methyl-3-phenyl-piperidin-3-yl)-6-methylsulfanyl-4-trifluoromethyl-benzamide hydrochloride] | 10.1
15 | CN1CCC[C@](NC(=O)c2ccc(C(F)(F)F)cc2C2CC2)(c2ccccc2)C1 (stereo in doubt) [Example 56, 2-Cyclopropyl-N-((S)-1-methyl-3-phenyl-piperidin-3-yl)-4-trifluoromethyl-benzamide hydrochloride] | 162
16 | CN1CCC[C@@](NC(=O)c2ccc(C(F)(F)F)cc2C2CC2)(c2ccccc2)C1 (stereo in doubt) [Example 57, 2-Cyclopropyl-N-((R)-1-methyl-3-phenyl-piperidin-3-yl)-4-trifluoromethyl-benzamide hydrochloride] | 22.7
17 | COc1cc(C(F)(F)F)cc(SC)c1C(=O)N[C@@]1(c2ccccc2)C[C@H](OC)CN(C)C1 (stereo in doubt) [Example 75, 2-Methoxy-N-((3RS,5SR)-5-methoxy-1-methyl-3-phenyl-piperidin-3-yl)-6-methylsulfanyl-4-trifluoromethyl-benzamide] | 53.8
18 | COc1cc(C(F)(F)F)cc(SC)c1C(=O)N[C@@]1(c2ccccc2)C[C@H](OC)CN(C)C1 (stereo in doubt) [Example 108, 2-Methoxy-N-((3R,5S) or (3S,5R)-5-methoxy-1-methyl-3-phenyl-piperidin-3-yl)-6-methylsulfanyl-4-trifluoromethyl-benzamide] | 40.9
19 | COc1cc(C(F)(F)F)cc(SC)c1C(=O)N[C@]1(c2ccccc2)C[C@@H](OC)CN(C)C1 (stereo in doubt) [Example 109, 2-Methoxy-N-((3S,5R) or (3R,5S)-5-methoxy-1-methyl-3-phenyl-piperidin-3-yl)-6-methylsulfanyl-4-trifluoromethyl-benzamide] | 151
